Experimental findings from ChEMBL document CHEMBL4371049, “Semi-synthesis and anti-tumor activity of novel 25-OCH3-PPD derivatives incorporating aromatic moiety” (Bioorg Med Chem Lett, 2019) are described below.

Common to all, as to format: functional, cell-based
One assay concerns BGC-823. Put plainly: Antiproliferative activity against human BGC823 cells after 48 hrs by MTT assay. To be noted: BGC-823, 48 h.
In another assay the test system is DU-145. Put plainly: Antiproliferative activity against human DU145 cells after 48 hrs by MTT assay. To be noted: DU-145, 48 h. (Tetrazolium assays rely on reduction of a dye to a coloured formazan, in cell work by metabolically active cells.)
Another assay deals with HepG2. The assay can be described thus: Antiproliferative activity against human HepG2 cells after 48 hrs by MTT assay. Particulars: HepG2, 48 h.
Another assay deals with PC-3. The assay can be described thus: Antiproliferative activity against human PC3 cells after 48 hrs by MTT assay. To be noted: PC-3, 48 h.
For a further assay, the system named is MCF7. The assay can be described thus: Antiproliferative activity against human MCF7 cells after 48 hrs by MTT assay. Particulars: MCF7, 48 h.

The structures appear in SMILES notation. A value given as a limit tells only on which side of the number the result lay.

Broadly, the IC50 is the concentration that inhibits the measured activity by half. A lower IC50 goes with greater potency. On to `COC(C)(C)CCC[C@@](C)(O)[C@H]1CC[C@]2(C)[C@@H]1[C@H](O)C[C@@H]1[C@@]3(C)CC[C@H](OC(=O)c4ccccc4Cl)C(C)(C)[C@@H]3CC[C@]12C`, for which the 50% inhibitory concentration (IC50) in the assay with BGC-823 stood at 28.1 µM; with DU-145 it was 18.5 µM; with HepG2, 19.2 µM; in the assay on PC-3 it was 22 µM; with MCF7 it was 15.6 µM.
For the compound `COC(C)(C)CCC[C@@](C)(O)[C@H]1CC[C@]2(C)[C@@H]1[C@H](OC(=O)/C=C/c1ccccc1)C[C@@H]1[C@@]3(C)CC[C@H](O)C(C)(C)[C@@H]3CC[C@]12C`, the half-inhibitory concentration (IC50) with BGC-823, in the assay on DU-145, in the assay with HepG2, with PC-3 and in the assay with MCF7 was more than 50 µM each time.
In the case of `COC(C)(C)CCC[C@@](C)(O)[C@H]1CC[C@]2(C)[C@@H]1[C@H](O)C[C@@H]1[C@@]3(C)CC[C@H](OC(=O)c4cc(F)ccc4Br)C(C)(C)[C@@H]3CC[C@]12C`, the 50% inhibitory concentration (IC50) in the assay on BGC-823 turned out to be 34.4 µM; in the assay on DU-145, 28.7 µM; in the assay on HepG2 it was 18.9 µM; in the assay on PC-3, 39.9 µM; in the assay with MCF7 it was 15.6 µM.
With `COC(C)(C)CCC[C@@](C)(O)[C@H]1CC[C@]2(C)[C@@H]1[C@H](OC(=O)/C=C/c1ccc(F)cc1)C[C@@H]1[C@@]3(C)CC[C@H](O)C(C)(C)[C@@H]3CC[C@]12C`, the IC50 in the assay on BGC-823, in the assay with DU-145, in the assay on HepG2, in the assay with PC-3 and in the assay on MCF7 was more than 50 µM in each case.
On to `COC(C)(C)CCC[C@@](C)(O)[C@H]1CC[C@]2(C)[C@@H]1[C@H](O)C[C@@H]1[C@@]3(C)CC[C@H](OC(=O)c4cccc(C)c4)C(C)(C)[C@@H]3CC[C@]12C`, for which the IC50 with BGC-823 was more than 50 µM; with DU-145, 46.2 µM; in the assay on HepG2, 38.4 µM; with PC-3 it was more than 50 µM; in the assay with MCF7, more than 50 µM.
Regarding `COC(C)(C)CCC[C@@](C)(O)[C@H]1CC[C@]2(C)[C@@H]1[C@H](O)C[C@@H]1[C@@]3(C)CC[C@H](OC(=O)c4ccc(Cl)cc4)C(C)(C)[C@@H]3CC[C@]12C`, the IC50 in the assay on BGC-823 came out at 26.4 µM; in the assay with DU-145, 20.5 µM; in the assay with HepG2, 25.7 µM; with PC-3, 28.3 µM; in the assay with MCF7, 19 µM.
The matching figures for `COC(C)(C)CCC[C@@](C)(O)[C@H]1CC[C@]2(C)[C@@H]1[C@H](O)C[C@@H]1[C@@]3(C)CC[C@H](OC(=O)c4ccc(Br)cc4)C(C)(C)[C@@H]3CC[C@]12C`: 26.2 µM, 23.1 µM, 25.7 µM, 35.7 µM and 17.6 µM.
Turning to `COC(C)(C)CCC[C@@](C)(O)[C@H]1CC[C@]2(C)[C@@H]1[C@H](O)C[C@@H]1[C@@]3(C)CC[C@H](OC(=O)c4cc(I)ccc4Cl)C(C)(C)[C@@H]3CC[C@]12C`, the IC50 was more than 50 µM in the assay on BGC-823; 30.7 µM in the assay on DU-145; 28.8 µM in the assay with HepG2; more than 50 µM in the assay with PC-3; 29.4 µM with MCF7.
As for `COC(C)(C)CCC[C@@](C)(O)[C@H]1CC[C@]2(C)[C@@H]1[C@H](O)C[C@@H]1[C@@]3(C)CC[C@H](OC(=O)c4ccccc4C)C(C)(C)[C@@H]3CC[C@]12C`, the IC50 in the assay with BGC-823 was more than 50 µM; with DU-145, 44.3 µM; in the assay with HepG2, more than 50 µM; with PC-3, more than 50 µM; in the assay with MCF7, 37.6 µM.
As for `COC(C)(C)CCC[C@@](C)(O)[C@H]1CC[C@]2(C)[C@@H]1[C@H](O)C[C@@H]1[C@@]3(C)CC[C@H](OC(=O)c4cc(Br)cc(Br)c4)C(C)(C)[C@@H]3CC[C@]12C`, the IC50 in the assay with BGC-823 is 36.1 µM; in the assay with DU-145 it was 22.6 µM; in the assay with HepG2, 43.6 µM; in the assay on PC-3, 38.4 µM; in the assay on MCF7, 41.7 µM.
Consider `COC(C)(C)CCC[C@@](C)(O)[C@H]1CC[C@]2(C)[C@@H]1[C@H](O)C[C@@H]1[C@@]3(C)CC[C@H](O)C(C)(C)[C@@H]3CC[C@]12C`, for which the concentration for half-maximal inhibition (IC50) amounted to 36 µM in the assay on BGC-823; 40.7 µM in the assay on DU-145; 35.9 µM in the assay with HepG2; 39.5 µM with PC-3; 31.3 µM in the assay with MCF7.
The matching figures for `COC(C)(C)CCC[C@@](C)(O)[C@H]1CC[C@]2(C)[C@@H]1[C@H](O)C[C@@H]1[C@@]3(C)CC[C@H](OC(=O)/C=C/c4ccc(Cl)cc4)C(C)(C)[C@@H]3CC[C@]12C`: 25.8 µM, 33.1 µM, 26.7 µM, 23.5 µM and 20.8 µM.
For `COC(C)(C)CCC[C@@](C)(O)[C@H]1CC[C@]2(C)[C@@H]1[C@H](O)C[C@@H]1[C@@]3(C)CC[C@H](OC(=O)c4ccccc4)C(C)(C)[C@@H]3CC[C@]12C`, in that order: 35.1 µM, 23.5 µM, 17.8 µM, 30.4 µM and 18.9 µM.
Take `COC(C)(C)CCC[C@@](C)(O)[C@H]1CC[C@]2(C)[C@@H]1[C@H](OC(=O)c1ccc([N+](=O)[O-])cc1)C[C@@H]1[C@@]3(C)CC[C@H](O)C(C)(C)[C@@H]3CC[C@]12C`: the IC50 in the assay on BGC-823, with DU-145, with HepG2, in the assay with PC-3 and in the assay on MCF7 was more than 50 µM throughout.
Take `COC(C)(C)CCC[C@@](C)(O)[C@H]1CC[C@]2(C)[C@@H]1[C@H](OC(=O)c1ccccc1)C[C@@H]1[C@@]3(C)CC[C@H](O)C(C)(C)[C@@H]3CC[C@]12C`: the half-maximal inhibitory concentration (IC50) in the assay on BGC-823, in the assay with DU-145, in the assay with HepG2, in the assay on PC-3 and in the assay on MCF7 was more than 50 µM throughout.
Take `COC(C)(C)CCC[C@@](C)(O)[C@H]1CC[C@]2(C)[C@@H]1[C@H](O)C[C@@H]1[C@@]3(C)CC[C@H](OC(=O)c4cc([N+](=O)[O-])cc([N+](=O)[O-])c4)C(C)(C)[C@@H]3CC[C@]12C`: the IC50 in the assay with BGC-823 was determined as 9.5 µM; in the assay with DU-145, 13.4 µM; with HepG2, 14.5 µM; in the assay with PC-3, 7.5 µM; with MCF7 it was 11.7 µM.
The matching figures for `COC(C)(C)CCC[C@@](C)(O)[C@H]1CC[C@]2(C)[C@@H]1[C@H](OC(=O)c1ccc(Cl)cc1)C[C@@H]1[C@@]3(C)CC[C@H](OC(=O)c4ccc(Cl)cc4)C(C)(C)[C@@H]3CC[C@]12C`: more than 50 µM, more than 50 µM, 41.5 µM, more than 50 µM and 36.4 µM.
As for `COC(C)(C)CCC[C@@](C)(O)[C@H]1CC[C@]2(C)[C@@H]1[C@H](OC(=O)c1ccc(Br)cc1)C[C@@H]1[C@@]3(C)CC[C@H](O)C(C)(C)[C@@H]3CC[C@]12C`, the IC50 in the assay on BGC-823, in the assay on DU-145, in the assay with HepG2, with PC-3 and in the assay on MCF7 was more than 50 µM throughout.
For `COC(C)(C)CCC[C@@](C)(O)[C@H]1CC[C@]2(C)[C@@H]1[C@H](O)C[C@@H]1[C@@]3(C)CC[C@H](OC(=O)c4ccc(F)cc4F)C(C)(C)[C@@H]3CC[C@]12C`, the IC50 with BGC-823 was determined as 7.1 µM; with DU-145 it was 6.7 µM; in the assay with HepG2, 5.8 µM; in the assay on PC-3 it was 11.4 µM; with MCF7, 4.3 µM.
As to `COC(C)(C)CCC[C@@](C)(O)[C@H]1CC[C@]2(C)[C@@H]1[C@H](OC(=O)c1ccc([N+](=O)[O-])cc1)C[C@@H]1[C@@]3(C)CC[C@H](OC(=O)c4ccc([N+](=O)[O-])cc4)C(C)(C)[C@@H]3CC[C@]12C`, the IC50 with BGC-823, in the assay on DU-145, in the assay on HepG2, in the assay with PC-3 and in the assay with MCF7 was more than 50 µM throughout.
With `COC(C)(C)CCC[C@@](C)(O)[C@H]1CC[C@]2(C)[C@@H]1[C@H](OC(=O)c1ccc(I)cc1)C[C@@H]1[C@@]3(C)CC[C@H](O)C(C)(C)[C@@H]3CC[C@]12C`, the IC50 in the assay with BGC-823, in the assay on DU-145, with HepG2, with PC-3 and in the assay on MCF7 was more than 50 µM each time.
Take `COC(C)(C)CCC[C@@](C)(O)[C@H]1CC[C@]2(C)[C@@H]1[C@H](O)C[C@@H]1[C@@]3(C)CC[C@H](OC(=O)/C=C/c4ccc(F)cc4)C(C)(C)[C@@H]3CC[C@]12C`: the 50% inhibitory concentration (IC50) was found to be 18 µM in the assay on BGC-823; 20.6 µM with DU-145; 26.9 µM with HepG2; 17.6 µM in the assay with PC-3; 23.7 µM in the assay on MCF7.
The matching figures for `COC(C)(C)CCC[C@@](C)(O)[C@H]1CC[C@]2(C)[C@@H]1[C@H](OC(=O)/C=C/c1ccccc1)C[C@@H]1[C@@]3(C)CC[C@H](OC(=O)/C=C/c4ccccc4)C(C)(C)[C@@H]3CC[C@]12C`: more than 50 µM, more than 50 µM, more than 50 µM, more than 50 µM and more than 50 µM.
`COC(C)(C)CCC[C@@](C)(O)[C@H]1CC[C@]2(C)[C@@H]1[C@H](OC(=O)c1ccc(Br)cc1)C[C@@H]1[C@@]3(C)CC[C@H](OC(=O)c4ccc(Br)cc4)C(C)(C)[C@@H]3CC[C@]12C`: the 50% inhibitory concentration (IC50) with BGC-823, in the assay with DU-145, in the assay with HepG2, in the assay with PC-3 and in the assay on MCF7 was more than 50 µM throughout.
